Laboratory results reported in publication PMC10782483, “Development of the High-Affinity Carborane-Based Cannabinoid Receptor Type 2 PET Ligand [^18F]LUZ5-d8” (Journal of Medicinal Chemistry, 2023).
Values joined by “and” are separate entries in the source; they are usually repeats but may differ in a detail not shown here. Equal entries are not always repeated. “Also recorded” adds a separate entry of the source. Where two headings read alike, the source gives them in different places.

Legend:
human CB2R = target: T1, human CB2R (Homo sapiens, UniProt P34972); assay: competitive binding affinity assay, membrane homogenates of hCB2R CHO cells, radioligand [3H]WIN55212-2; settings: hCB2R CHO membranes
T1 construct: expressed in transfected cells; host or cells: CHO cells (membrane homogenates)
T1 sequence (P34972 whole entry): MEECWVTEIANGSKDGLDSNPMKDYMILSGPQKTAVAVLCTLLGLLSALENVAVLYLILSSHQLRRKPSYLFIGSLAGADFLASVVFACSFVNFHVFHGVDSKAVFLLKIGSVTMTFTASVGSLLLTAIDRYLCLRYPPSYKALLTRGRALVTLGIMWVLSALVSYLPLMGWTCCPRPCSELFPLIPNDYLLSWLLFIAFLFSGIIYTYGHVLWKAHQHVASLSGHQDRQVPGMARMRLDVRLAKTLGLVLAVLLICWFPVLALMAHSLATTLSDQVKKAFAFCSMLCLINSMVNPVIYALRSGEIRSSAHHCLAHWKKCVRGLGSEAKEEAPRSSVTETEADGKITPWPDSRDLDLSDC
Protocol: Target compounds 9–11, 15, LUZ5, and 17 were evaluated in a competitive binding affinity assay using hCB2R Chinese hamster ovary (CHO) cells and the agonistic high-affinity CB2R radioligand [^3H]WIN55212-2 (Figure S96).
(§1) The in vitro binding affinity assays were performed with membrane homogenates from Chinese hamster ovary (CHO) cells stably transfected with the human CB2R according to a previously published protocol.[95] The screening for CB1R binding affinity determination was performed with membrane homogenates from CHO cells stably transfected with the human CB1R as described previously.[96]

[1] = chemical stability tests by 1H and 11B{1H} NMR spectroscopy in aqueous DMSO-d6; assay type: physicochemical; settings: for chemical stability in aqueous DMSO-d6 (NMR), in words / stability in aqeous DMSO-d6 (1H, 11B{1H}-NMR) / stability versus binding affinity assay time frame: aqueous DMSO-d6; for stability versus binding affinity assay time frame: assay time 90 min
Protocol: A high chemical and metabolic stability of the compounds is required for biological evaluation and application in vivo. The method of choice for evaluating the chemical stability was ^1H and ^11B{^1H} NMR spectroscopy, with the latter being particularly suitable for recognizing deboronation. Since the in vitro binding assays are performed in aqueous media, the stability tests should be performed under similar conditions. However, due to the high hydrophobicity of the carborane moieties, target compounds 9–11 and 15–17 were not soluble in aqueous solution without the addition of dimethyl sulfoxide (DMSO). Since a maximum of 1% DMSO can be used in the in vitro binding assay, stability measurements were performed in aqueous DMSO-d6 to see especially if deboronation occurs in the presence of water. Approximately 10 mg of each compound (9–11 and 15–17) was dissolved in the deuterated NMR solvent and monitored via NMR spectroscopy in time intervals of a few minutes (after the addition of the solvent to the respective solid compound) to at least 23 days for the o- (9 and 15) and m-carborane derivatives (10 and LUZ5) and beyond one year for the p-carborane analogues (11 and 17) (Figures S68–S79).
Stability tests were performed with ^1H and ^11B{^1H} NMR spectroscopy. Approximately 10 mg of each compound was dissolved in aqueous DMSO-d6 and measured directly thereafter and at increasing time intervals from a few minutes to a couple of days or beyond a year.
The stability of LUZ5 was additionally investigated under the conditions described above, but in the presence of larger amounts of H2O or D2O. For this, LUZ5 was dissolved in DMSO-d6 (0.5 mL) and either H2O (0.1 mL) or D2O (0.1 mL) was added.

CB2R = settings: reference compound; read-out: KiCB2R; cited from earlier work
[2] = cited from earlier work
[3] = rat, in vivo; cited from earlier work
[4] = test system: mouse liver microsomes (MLMs); assay: in vitro metabolism with mouse liver microsomes and NADPH, HPLC-UV-MS; assay type: in vitro ADME; settings: NADPH, similar conditions
Protocol: Each of the compounds was incubated with mouse liver microsomes (MLMs) in phosphate-buffered saline (PBS) in the presence of nicotinamide adenine dinucleotide phosphate (NADPH) for 30 and 60 min at 37 °C, according to a literature protocol.[81],[82] After the addition of cold acetonitrile, the obtained supernatants were analyzed by HPLC-UV-MS (exemplified chromatogram and spectrum in Figures S91 and S92). […] In addition, negative control samples without NADPH or without NADPH and MLM were prepared and analyzed for each target compound.
For in vitro evaluation of metabolites, the following instruments were used: BioShake iQ (QUANTIFOIL Instruments, Jena, Germany), Centrifuge 5424 (Eppendorf, Hamburg, Germany), UltiMate 3000 UHPLC System (Thermo Scientific, Germering, Germany) including a DAD detector (DAD-3000RS) coupled to an MSQ Plus single quadrupole mass spectrometer (Thermo Scientific, Austin, TX). […] In brief, each of the test compounds (dissolved in DMSO, final concentration of 10 μM, final DMSO percentage of 1%) and MLMs (final protein concentration of 1 mg/mL) in PBS (pH 7.4) were preincubated in PBS (pH 7.4) for 5 min at 37 °C. Similarly preincubated NADPH (final concentration of 2 mM) was added to start the incubation. […] The supernatants were stored at 4 °C until they were measured by HPLC-UV-MS. […]

human CB1R = target: T2, human CB1R (Homo sapiens, UniProt P21554); assay: CB1R binding affinity screening, membrane homogenates of CHO cells with human CB1R, radioligand [3H]SR141716A; settings: human CB1R CHO membranes
T2 construct: expressed in transfected cells; host or cells: CHO cells (membrane homogenates)
T2 sequence (P21554 whole entry): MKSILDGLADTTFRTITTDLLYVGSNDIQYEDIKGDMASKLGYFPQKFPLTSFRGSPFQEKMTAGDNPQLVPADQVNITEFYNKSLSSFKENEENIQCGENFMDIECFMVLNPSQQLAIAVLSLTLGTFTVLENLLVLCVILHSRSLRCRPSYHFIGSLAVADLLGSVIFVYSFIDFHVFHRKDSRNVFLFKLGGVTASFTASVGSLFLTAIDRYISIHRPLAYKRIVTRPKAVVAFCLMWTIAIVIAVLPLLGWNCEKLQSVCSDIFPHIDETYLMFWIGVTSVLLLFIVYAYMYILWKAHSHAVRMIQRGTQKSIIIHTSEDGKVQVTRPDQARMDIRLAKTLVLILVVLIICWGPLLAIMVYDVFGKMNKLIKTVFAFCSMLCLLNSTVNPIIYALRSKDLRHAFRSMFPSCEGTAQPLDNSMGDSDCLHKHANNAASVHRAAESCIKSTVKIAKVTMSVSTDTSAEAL
Protocol: as §1

[5] = individual values behind the mean, read-out: KiCB2R individual values

| Compound | Ki (human CB2R; mean, read-out: KiCB2R mean) [nM] | chemical stability in aqueous DMSO-d6 (NMR), in words [1] | stability in aqeous DMSO-d6 (1H, 11B{1H}-NMR) [1] | stability versus binding affinity assay time frame [1] | Ki (human CB2R; [5]) | other results |
| --- | --- | --- | --- | --- | --- | --- |
| 1-(4-Fluorobutyl)-2-oxo-N-(1,2-dicarba-closo-dodecaboranyl)-1,2-dihydro-1,8-naphthyridine-3-carboxamide [Compound 9] | 40.8 | additional signals were visible already after 2 h | < 0.083 days | too low |  |  |
| 1-(4-Fluorobutyl)-2-oxo-N-(1,7-dicarba-closo-dodecaboranyl)-1,2-dihydro-1,8-naphthyridine-3-carboxamide [Compound 10] | 35.4 |  | < 8 days | stability beyond the binding affinity assay time frame | 43.8 nM and 26.9 nM |  |
| 1-(4-Fluorobutyl)-2-oxo-N-(1,7-dicarba-closo-dodecaboranyl)-1,2-dihydro-1,8-naphthyridine-3-carboxamide [Compound 11] | 3.9 | stable for more than one year; also recorded: good chemical stability | ? 491 d | stability beyond the binding affinity assay time frame | 2.77 nM and 5.01 nM |  |
| O=C(NC12CC3CC(CC(C3)C1)C2)c1cc2cccnc2n(CCCCF)c1=O [LU13] |  |  |  |  |  | Ki (CB2R): 0.6 nM |
| Cc1s/c(=N\C(=O)C2C(C)(C)C2(C)C)n(CCCC[18F])c1C [[^18F]3] |  |  |  |  |  | intact radioligand in brain ([2]; brain samples): 36%; intact radiotracer in plasma ([2]; mouse, in vivo): 7% |
| Cc1s/c(=N\C(=O)C2C(C)(C)C2(C)C)n(CCOCC[18F])c1C [[^18F]4] |  |  |  |  |  | intact radiotracer in plasma [3]: 25% |
| C[C@]12CC[C@H]3[C@@H](CCC4=CC(=O)CC[C@@]43C)[C@@H]1CC[C@@H]2O [testosterone] |  |  |  |  |  | conversion of positive control [4]: complete conversion |
| (Z)-N-[3-(4-Fluorobutyl)-4,5-dimethylthiazole-2(3H)-ylidene]-(1,2-dicarba-closo-dodecaboranyl)-carboxamide [Compound 15] | 3.3 | good chemical stability | < 3 days | stability beyond the binding affinity assay time frame | 3.28 nM and 3.26 nM |  |
| (Z)-N-[3-(4-Fluorobutyl)-4,5-dimethylthiazole-2(3H)-ylidene]-(1,7-dicarba-closo-dodecaboranyl)-carboxamide [LUZ5] | 0.8 |  | ? 23 d | stability beyond the binding affinity assay time frame |  | stable in DMSO-d6 with increased amounts of D2O ([1]; D2O in DMSO-d6 1:5 (v/v), 11B{1H} NMR): at least 8 days; stable in DMSO-d6 with increased amounts of H2O ([1]; H2O in DMSO-d6 1:5 (v/v), 11B{1H} NMR): at least 19 days; Ki (human CB1R): > 10000 nM |
| (Z)-N-[3-(4-Fluorobutyl)-4,5-dimethylthiazole-2(3H)-ylidene]-(1,12-dicarba-closo-dodecaboranyl)-carboxamide [Compound 17] | 1.3 | stable for more than one year; also recorded: good chemical stability | ? 491 d | stability beyond the binding affinity assay time frame | 1.36 nM and 1.17 nM |  |
